Measurements taken from EP0085842A1, “Antimycosic agents” (BAYER AG, priority 1982, dated 1983).
≈ marks a conversion by molar mass, not a printed value.

Assays:
[1] = system: Trichophyton mentagr.; test: Antimycotic in-vitro activity, serial dilution test (MIC); type: cell-based, Trichophyton mentagrophytes; settings: Sabouraud's milieu d'epreuve, 20°C, 96 h, inoculum 5 x 10^4 Keime/ml, read-out: MHK-Werte in γ/ml Nährmedium Trichophyton mentagr.
Protocol: (§1) Versuchsbeschreibung: • Die in-vitro-Prüfungen wurden im Reihenverdünnungstest mit Keiminokula von durchschnittlich 5 x 10^4 Keimen/ml Substrat durchgeführt. Als Nährmedium dienten • a) für Dermatophyten und Schimmelpilze: Sabouraud's milieu d'epreuve • b) für Hefen: • Fleischextrakt-Traubenzucker-Bouillon.
(§2) Die Bebrütungstemperatur betrug 20°C, die Bebrütungsdauer lag bei 24 bis 96 Stunden bei Hefen und 96 Stunden bei Dermatophyten und Schimmelpilzen.

[2] = system: Aspergillus fumigatus; test: as above; type: cell-based; settings: Sabouraud's milieu d'epreuve, 20°C, 96 h, inoculum 5 x 10^4 Keime/ml, read-out: MHK-Werte in γ/ml Nährmedium Aspergillus fumigatus
Protocol: as §1, §2

[3] = system: Candida albicans; test: as above; type: cell-based; settings: Fleischextrakt-Traubenzucker-Bouillon, 20°C, 24 to 96 h, inoculum 5 x 10^4 Keime/ml, read-out: MHK-Werte in γ/ml Nährmedium Candida albicans
Protocol: as §1, §2

[4] = system: Microsporum canis; test: as above; type: cell-based; settings: Sabouraud's milieu d'epreuve, 20°C, 96 h, inoculum 5 x 10^4 Keime/ml, read-out: MHK-Werte in γ/ml Nährmedium Microsporum canis
Protocol: as §1, §2

[5] = system: Torulopsis glabrata; test: as above; type: cell-based; settings: Nakaseomyces glabratus; Fleischextrakt-Traubenzucker-Bouillon, 20°C, 24 to 96 h, inoculum 5 x 10^4 Keime/ml; read-out: MHK-Werte in γ/ml Nährmedium Torulopsis glabrata
Protocol: as §1, §2

[6] = system: Candida-Zellen; test: Antimycotic in-vivo activity (oral) in mouse candidosis; set-up: species or system Mäuse vom Typ SPF-CF1; settings: for Wirkung: mice infected i.v. with Candida, oral 50 - 100 mg/kg one hour before and seven hours after infection, survivors on day 6 p.i.; for Wirkung compared with known compounds (A), (B), (C) and (D): mouse candidosis, oral 50 - 100 mg/kg
Protocol: Mäuse vom Typ SPF-CF1 wurden intravenös mit 1 - 2 x 10^6 logarithmisch wachsenden Candida-Zellen, die in physiologischer Kochsalzlösung suspendiert werden, infiziert. Eine Stunde vor und sieben Sunden nach der Infektion werden die Tiere mit jeweils 50 - 100 mg/kg Körpergewicht der Präparate oral behandelt.
Unbehandelte Tiere starben 3 bis 6 Tage post infektionem. Die Überlebensrate am 6. Tag post infektionem betrug bei unbehandelten Kontrolltieren etwa 5 %.
+++++ = sehr gute Wirkung = 90 % Überlebende am 6.Tag p.i. ++++ = gute Wirkung = 80 % Überlebende am 6.Tag p.i. +++ = Wirkung = 60 % Überlebende am 6.Tag p.i. ++ = schwache Wirkung = 40 % Überlebende am 6.Tag p.i. + = Spur Wirkung = unter 40 % Überlebende am 6.Tag p.i. k.W. = keine Wirkung

[7] = system: Trichophyton mentagrophytes; test: Antimycotic in-vivo activity (local) in experimental guinea pig trichophytosis; set-up: species or system Meerschweinchen; key: +++++: sehr gute Wirkung = keine Infektionszeichen am 12.-15.Tag p.i.; ++++: gute Wirkung = geringe Rötung, vereinzelt Schuppen; +++: Wirkung = Rötung, Schuppung, ohne Haarausfall; ++: schwache Wirkung = Rötung, Schuppung, Haarausfall; +: Spur Wirkung = flächiger Haarausfall, entzündliche Hautreaktion
[8] = local, 1 x daily from day 3 p.i., 15 %ige Lösung in Dimethylsulfoxid:Glycerin = 1:4, infection signs day 12-15 p.i.
[9] = local treatment, trichophytosis model

SMILES	MIC [1]	MIC [2]	MIC [3]	MIC [4]	MIC [5]	Wirkung [6]	Wirkung compared with known compounds (A), (B), (C) and (D) [6]	Wirkung [7, 8]	Wirkung [7, 9]
C=CC(C)(C)C(O)(COc1ccc(Cl)cc1)Cn1cncn1 (stereo not shown) [Beispiel 22]	< 1 µg/mL	< 1 µg/mL	2 µg/mL (≈ 6.21 µM)	4 µg/mL (≈ 12.4 µM)	16 µg/mL (≈ 49.7 µM)	+++++ (sehr gute Wirkung = 90 % Überlebende am 6.Tag p.i.)	bessere Wirkung	++	–
CC(CF)(CF)C(O)(CCc1ccc(Cl)cc1)Cn1cncn1 (stereo not shown) [Beispiel 28]	< 1 µg/mL	< 1 µg/mL	2 µg/mL (≈ 5.82 µM)	2 µg/mL (≈ 5.82 µM)	2 µg/mL (≈ 5.82 µM)	++++ (gute Wirkung = 80 % Überlebende am 6.Tag p.i.)	bessere Wirkung	++++	Wirkung bis gute Wirkung
CC(C)(CF)C(O)(COc1ccc(F)cc1)Cn1cncn1 (stereo not shown) [Beispiel 1, 4-Fluor-2-(4-fluorphenoxymethyl)-3,3-dimethyl-1-(1,2,4-triazol-1-yl)-butan-2-ol]	4 µg/mL (≈ 12.8 µM)	8 µg/mL (≈ 25.7 µM)	< 1 µg/mL	8 µg/mL (≈ 25.7 µM)	16 µg/mL (≈ 51.4 µM)	+++ (Wirkung = 60 % Überlebende am 6.Tag p.i.)	bessere Wirkung	++	–
CC(C)(CF)C(O)(CCc1ccc(Cl)cc1)Cn1cncn1 (stereo not shown) [Beispiel 25]	< 1 µg/mL	< 1 µg/mL	< 1 µg/mL	< 1 µg/mL	2 µg/mL (≈ 6.14 µM)	+++ (Wirkung = 60 % Überlebende am 6.Tag p.i.)	bessere Wirkung	++++	Wirkung bis gute Wirkung
CC(CF)(CF)C(O)(COc1ccc(Cl)cc1Cl)Cn1ccnc1 (stereo not shown) [Beispiel 32]	2 µg/mL (≈ 5.27 µM)	32 µg/mL (≈ 84.4 µM)	2 µg/mL (≈ 5.27 µM)	16 µg/mL (≈ 42.2 µM)	8 µg/mL (≈ 21.1 µM)	++++ (gute Wirkung = 80 % Überlebende am 6.Tag p.i.)	bessere Wirkung	+++	Wirkung bis gute Wirkung
CC(C)(CF)C(O)(COc1ccc(Cl)cc1Cl)Cn1cncn1 (stereo not shown) [Beispiel 9]	< 1 µg/mL	8 µg/mL (≈ 22.1 µM)	4 µg/mL (≈ 11 µM)	2 µg/mL (≈ 5.52 µM)	4 µg/mL (≈ 11 µM)	+++ (Wirkung = 60 % Überlebende am 6.Tag p.i.)	bessere Wirkung	++++	Wirkung bis gute Wirkung
CC(C)(CF)C(O)(CSc1ccc(Cl)cc1)Cn1cncn1 (stereo not shown) [Beispiel 10]	< 1 µg/mL	< 1 µg/mL	4 µg/mL (≈ 11.6 µM)	< 1 µg/mL	16 µg/mL (≈ 46.5 µM)	++++ (gute Wirkung = 80 % Überlebende am 6.Tag p.i.)	bessere Wirkung	++++	Wirkung bis gute Wirkung
CC(CF)(CF)C(O)(CCc1ccc(Cl)cc1Cl)Cn1cncn1 (stereo not shown) [Beispiel 27]	< 1 µg/mL	2 µg/mL (≈ 5.29 µM)	2 µg/mL (≈ 5.29 µM)	2 µg/mL (≈ 5.29 µM)	4 µg/mL (≈ 10.6 µM)	+++ (Wirkung = 60 % Überlebende am 6.Tag p.i.)	bessere Wirkung	+++	Wirkung bis gute Wirkung
Cc1cc(Cl)ccc1OCC(O)(Cn1cncn1)C(C)(C)CF (stereo not shown) [Beispiel 8]	< 1 µg/mL	4 µg/mL (≈ 11.7 µM)	< 1 µg/mL	< 1 µg/mL	2 µg/mL (≈ 5.85 µM)	+++ (Wirkung = 60 % Überlebende am 6.Tag p.i.)	bessere Wirkung	+++	Wirkung bis gute Wirkung
CC(CF)(CF)C(O)(COc1ccc(Cl)cc1)Cn1cncn1 (stereo not shown) [Beispiel 13]	< 1 µg/mL	4 µg/mL (≈ 11.6 µM)	< 1 µg/mL	2 µg/mL (≈ 5.78 µM)	8 µg/mL (≈ 23.1 µM)	+++++ (sehr gute Wirkung = 90 % Überlebende am 6.Tag p.i.)	bessere Wirkung	+++	Wirkung bis gute Wirkung
Cc1cc(Cl)ccc1OCC(O)(Cn1cncn1)C(C)(CF)CF (stereo not shown) [Beispiel 15]	< 1 µg/mL	8 µg/mL (≈ 22.2 µM)	< 1 µg/mL	< 1 µg/mL	4 µg/mL (≈ 11.1 µM)	++++ (gute Wirkung = 80 % Überlebende am 6.Tag p.i.)	bessere Wirkung	++++	Wirkung bis gute Wirkung
C=CC(C)(C)C(O)(COc1ccc(-c2ccccc2)cc1)Cn1ccnc1 (stereo not shown) [Beispiel 5, 4-(4-Biphenylyloxymethyl)-3,3-dimethyl-4-hydroxy-5-(imidazol-1-yl)-1-penten]	< 1 µg/mL	< 1 µg/mL	< 1 µg/mL	< 1 µg/mL	< 1 µg/mL	++++ (gute Wirkung = 80 % Überlebende am 6.Tag p.i.)	bessere Wirkung	+++	Wirkung bis gute Wirkung
CC(C)(CF)C(O)(COc1ccc(Cl)cc1)Cn1cncn1 (stereo not shown) [Beispiel 7]	< 1 µg/mL	< 1 µg/mL	< 1 µg/mL	2 µg/mL (≈ 6.1 µM)	< 1 µg/mL	+++++ (sehr gute Wirkung = 90 % Überlebende am 6.Tag p.i.)	bessere Wirkung	+++	Wirkung bis gute Wirkung
CC(C)(CF)C(O)(CCc1ccc(Cl)cc1Cl)Cn1cncn1 (stereo not shown) [Beispiel 26]	< 1 µg/mL	< 1 µg/mL	4 µg/mL (≈ 11.1 µM)	2 µg/mL (≈ 5.55 µM)	8 µg/mL (≈ 22.2 µM)	+++ (Wirkung = 60 % Überlebende am 6.Tag p.i.)	bessere Wirkung	+++	Wirkung bis gute Wirkung
